Source: patent US20240270762A1, “PENICILLIN-BINDING PROTEIN INHIBITORS” (priority 2021, published 2024)
In brackets after ≈: the same amount, converted by molar mass.

Key:
[1] = molecular target: T1, PBP3 from Pseudomonas aeruginosa (PAO1) (Pseudomonas aeruginosa, UniProt G3XD46); experiment: Bocillin-FL fluorescence polarization competition binding, P. aeruginosa PBP3; conditions: Binding affinity to P. aeruginosa PBP3; fluorescence polarization competition binding assay using Bocillin-FL; read-out: P. aeruginosa PBP3 Potency
T1 construct: made in house
T1 sequence (G3XD46 whole entry): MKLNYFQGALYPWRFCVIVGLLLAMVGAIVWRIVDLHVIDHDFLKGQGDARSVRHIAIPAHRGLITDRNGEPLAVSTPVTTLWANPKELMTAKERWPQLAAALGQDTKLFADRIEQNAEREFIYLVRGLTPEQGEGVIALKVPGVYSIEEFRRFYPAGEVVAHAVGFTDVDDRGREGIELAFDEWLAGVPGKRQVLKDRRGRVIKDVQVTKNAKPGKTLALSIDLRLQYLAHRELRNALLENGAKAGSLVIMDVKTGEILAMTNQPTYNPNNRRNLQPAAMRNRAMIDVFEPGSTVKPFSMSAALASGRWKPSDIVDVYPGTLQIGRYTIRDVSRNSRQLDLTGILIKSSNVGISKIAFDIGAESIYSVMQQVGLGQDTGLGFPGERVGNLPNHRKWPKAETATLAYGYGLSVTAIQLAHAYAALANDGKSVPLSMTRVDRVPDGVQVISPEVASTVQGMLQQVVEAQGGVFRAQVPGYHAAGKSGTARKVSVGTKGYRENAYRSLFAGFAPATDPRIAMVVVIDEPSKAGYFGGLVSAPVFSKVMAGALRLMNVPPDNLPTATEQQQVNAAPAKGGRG
Summary of the method: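 Purified PBP was preincubated with inhibitor (E. coli PBP3 1.5 μM, 30 min; P. aeruginosa PBP3 0.75 μM, A. baumannii PBP3 0.2 μM and PBP1a 1 μM, 15 min), then Bocillin-FL (0.1 μM; 0.05 μM for PBP1a) added and FP read up to 60 min. EC50 = 50% loss of bound probe.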

A. baumannii PBP2 = A. baumannii PBP2 (Acinetobacter baumannii, UniProt D0C8Z9); experiment: Bocillin-FL competition binding via gel filtration, A. baumannii PBP2
Sequence of A. baumannii PBP2 (D0C8Z9 whole entry): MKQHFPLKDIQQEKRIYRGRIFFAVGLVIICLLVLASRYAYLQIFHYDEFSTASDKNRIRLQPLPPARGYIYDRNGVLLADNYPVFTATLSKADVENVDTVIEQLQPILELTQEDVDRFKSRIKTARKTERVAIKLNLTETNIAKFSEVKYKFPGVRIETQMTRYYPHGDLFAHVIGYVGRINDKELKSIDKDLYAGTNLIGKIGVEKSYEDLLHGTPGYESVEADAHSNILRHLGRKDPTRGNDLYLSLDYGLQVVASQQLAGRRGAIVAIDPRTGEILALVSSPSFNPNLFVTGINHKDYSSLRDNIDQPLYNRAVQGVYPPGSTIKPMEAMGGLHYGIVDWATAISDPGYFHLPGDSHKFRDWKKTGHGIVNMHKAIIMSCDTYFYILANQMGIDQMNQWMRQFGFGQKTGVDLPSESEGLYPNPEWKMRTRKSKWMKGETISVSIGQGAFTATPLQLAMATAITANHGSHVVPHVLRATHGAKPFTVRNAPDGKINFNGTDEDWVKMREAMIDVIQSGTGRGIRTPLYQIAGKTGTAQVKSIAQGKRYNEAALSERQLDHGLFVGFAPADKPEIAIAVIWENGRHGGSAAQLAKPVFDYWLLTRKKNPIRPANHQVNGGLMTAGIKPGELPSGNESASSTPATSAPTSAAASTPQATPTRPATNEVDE
Summary of the method: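 Competitive equilibrium binding; reporter Bocillin-FL. PBP + inhibitor (titration) pre-incubated → Bocillin-FL, 15 min → gel filtration → fluorescence. EC50 from Hill fit of fraction bound vs [inhibitor].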

A. baumannii ATCC 17978 = experiment: microbe, parasite or virus in culture; format: cell-based; conditions: Acinetobacter baumannii, ATCC17978, read-out: MIC, A. baumannii ATCC 17978
A. baumannii ATCC 19606 = experiment: microbe, parasite or virus in culture; format: cell-based; conditions: Acinetobacter baumannii, ATCC19606, read-out: MIC, A. baumannii ATCC 19606
P. aeruginosa ATCC 35151 = experiment: microbe, parasite or virus in culture; format: cell-based; conditions: Pseudomonas aeruginosa, ATCC35151, read-out: Minimum inhibitory concentration, P. aeruginosa ATCC 35151
P. aeruginosa CDC-0095 = experiment: microbe, parasite or virus in culture; format: cell-based; conditions: Pseudomonas aeruginosa, CDC0095, read-out: Minimum inhibitory concentration, P. aeruginosa CDC-0095
A. baumannii 1258916 = experiment: microbe, parasite or virus in culture; format: cell-based, Acinetobacter baumannii; conditions: Acinetobacter baumannii, 1258916, read-out: MIC, A. baumannii 1258916
A. baumannii CDC-0033 = experiment: microbe, parasite or virus in culture; format: cell-based; conditions: Acinetobacter baumannii, CDC0033, read-out: MIC, A. baumannii CDC-0033
A. baumannii CDC-0036 = experiment: microbe, parasite or virus in culture; format: cell-based; conditions: Acinetobacter baumannii, CDC0036, read-out: MIC, A. baumannii CDC-0036
A. baumannii CDC-0045 = experiment: microbe, parasite or virus in culture; format: cell-based; conditions: Acinetobacter baumannii, CDC0045, read-out: MIC, A. baumannii CDC-0045
A. baumannii CDC-0083 = experiment: microbe, parasite or virus in culture; format: cell-based; conditions: Acinetobacter baumannii, CDC0083, read-out: MIC, A. baumannii CDC-0083
[2] = tested on: B. thailandensis ATCC 700388; experiment: microbe, parasite or virus in culture; format: cell-based; conditions: Burkholderia thailandensis, ATCC700388, read-out: Minimum inhibitory concentration (MIC), B. thailandensis ATCC 700388
[3] = tested on: B. humptydooensis ATCC BAA-2767; experiment: microbe, parasite or virus in culture; format: cell-based; conditions: Burkholderia humptydooensis, ATCCBAA2767, read-out: Minimum inhibitory concentration (MIC), B. humptydooensis ATCC BAA-2767

SMILES | IC50 [1] [µM] | EC50 (A. baumannii PBP2) [µM] | MIC (A. baumannii ATCC 17978) [µg/mL] | MIC (A. baumannii ATCC 19606) [µg/mL] | MIC (P. aeruginosa ATCC 35151) [µg/mL] | MIC (P. aeruginosa CDC-0095) [µg/mL] | MIC (A. baumannii 1258916) [µg/mL] | MIC (A. baumannii CDC-0033) [µg/mL] | MIC (A. baumannii CDC-0036) [µg/mL] | MIC (A. baumannii CDC-0045) [µg/mL] | MIC (A. baumannii CDC-0083) [µg/mL] | MIC [2] [µg/mL] | MIC [3] [µg/mL]
O=C(NCCCN1CCN(C(=O)NC(C(=O)N[C@H]2Cc3ccc(F)c(C(=O)O)c3OB2O)c2cc(F)c(O)c(O)c2Cl)C(=O)C1=O)c1ccncc1Cl (stereo partly drawn) [Example 295, (3R)-3-(2-(2-chloro-5-fluoro-3,4-dihydroxyphenyl)-2-(4-(3-(3-chloroisonicotinamido)propyl)-2,3-dioxopiperazine-1-carboxamido)acetamido)-7-fluoro-2-hydroxy-3,4-dihydro-2H-benzo[e][1,2]oxaborinine-8-carboxylic acid] | < 10 | 10 to 50 | < 1 | < 1 | < 1 | < 1 | < 1 | 2 to 4 (≈ 2.57 to 5.13 µM) | 2 to 4 (≈ 2.57 to 5.13 µM) | < 1 | < 1 | 2 to 4 (≈ 2.57 to 5.13 µM) | < 1
O=C(NCCCN1CCN(C(=O)NC(C(=O)N[C@H]2Cc3ccc(F)c(C(=O)O)c3OB2O)c2cc(F)c(O)c(O)c2Cl)C(=O)C1=O)c1cc(F)ncc1F (mixture of isomers) [Example 405] | < 10 | 10 to 50 | < 1 | < 1 | < 1 | 2 to 4 | 2 to 4 | 2 to 4 | 2 to 4 | < 1 | < 1 | < 1 | 2 to 4
O=C(NCCN1CCN(C(=O)N[C@@H](C(=O)N[C@H]2Cc3ccc(F)c(C(=O)O)c3OB2O)c2cc(F)c(O)c(O)c2Cl)C1=O)Nc1ccc(O)cc1 [Example 279, (R)-3-((R)-2-(2-chloro-5-fluoro-3,4-dihydroxyphenyl)-2-(3-(2-(3-(4-hydroxyphenyl)ureido)ethyl)-2-oxoimidazolidine-1-carboxamido)acetamido)-7-fluoro-2-hydroxy-3,4-dihydro-2H-benzo[e][1,2]oxaborinine-8-carboxylic acid] | < 10 | 10 to 50 | < 1 | < 1 | < 1 | 2 to 4 (≈ 2.73 to 5.46 µM) | < 1 | 2 to 4 (≈ 2.73 to 5.46 µM) | < 1 | < 1 | < 1 | < 1 | < 1
O=C(NCCS(=O)(=O)N1CCN(C(=O)N[C@@H](C(=O)N[C@H]2Cc3ccc(F)c(C(=O)O)c3OB2O)c2cc(F)c(O)c(O)c2Cl)C1=O)c1ccc(O)cc1 [Example 287, (R)-3-((R)-2-(2-chloro-5-fluoro-3,4-dihydroxyphenyl)-2-(3-((2-(4-hydroxybenzamido)ethyl)sulfonyl)-2-oxoimidazolidine-1-carboxamido)acetamido)-7-fluoro-2-hydroxy-3,4-dihydro-2H-benzo[e][1,2]oxaborinine-8-carboxylic acid] | < 10 | < 10 | < 1 | < 1 | < 1 | 2 to 4 (≈ 2.56 to 5.12 µM) | < 1 | < 1 | 2 to 4 (≈ 2.56 to 5.12 µM) | < 1 | < 1 | 2 to 4 (≈ 2.56 to 5.12 µM) | < 1
O=C(NCCCN1CCN(C(=O)N[C@@H](C(=O)N[C@H]2Cc3ccc(F)c(C(=O)O)c3OB2O)c2cc(F)c(O)c(O)c2Cl)C(=O)C1=O)c1c(F)cc(O)cc1F (racemic) [Example 420] | < 10 | 10 to 50 | < 1 | < 1 | < 1 | 2 to 4 (≈ 2.51 to 5.03 µM) | 2 to 4 (≈ 2.51 to 5.03 µM) | 2 to 4 (≈ 2.51 to 5.03 µM) | 2 to 4 (≈ 2.51 to 5.03 µM) | < 1 | > 128 | 2 to 4 (≈ 2.51 to 5.03 µM) | 3 (≈ 3.77 µM)
O=C(NCCCN1CCN(C(=O)N[C@@H](C(=O)N[C@H]2Cc3ccc(F)c(C(=O)O)c3OB2O)c2cc(F)c(O)c(O)c2Cl)C(=O)C1=O)c1cc(F)c(O)c(F)c1 [Example 422, (R)-3-((R)-2-(2-chloro-5-fluoro-3,4-dihydroxyphenyl)-2-(4-(3-(3,5-difluoro-4-hydroxybenzamido)propyl)-2,3-dioxopiperazine-1-carboxamido)acetamido)-7-fluoro-2-hydroxy-3,4-dihydro-2H-benzo[e][1,2]oxaborinine-8-carboxylic acid] | < 10 | < 10 | < 1 | < 1 | < 1 | < 1 | < 1 | 2 to 4 (≈ 2.51 to 5.03 µM) | 2 to 4 (≈ 2.51 to 5.03 µM) | < 1 | > 128 | < 1 | < 1
Cc1cc(C(=O)NCCCN2CCN(C(=O)N[C@@H](C(=O)N[C@H]3Cc4ccc(F)c(C(=O)O)c4OB3O)c3cc(F)c(O)c(O)c3Cl)C(=O)C2=O)ccn1 [Example 298, (R)-3-((R)-2-(2-chloro-5-fluoro-3,4-dihydroxyphenyl)-2-(4-(3-(2-methylisonicotinamido)propyl)-2,3-dioxopiperazine-1-carboxamido)acetamido)-7-fluoro-2-hydroxy-3,4-dihydro-2H-benzo[e][1,2]oxaborinine-8-carboxylic acid] | < 10 | 10 to 50 | < 1 | < 1 | < 1 | < 1 | < 1 | 2 to 4 (≈ 2.64 to 5.27 µM) | < 1 | < 1 | < 1 | < 1 | < 1
O=C(NCCCN1CCN(C(=O)NC(C(=O)N[C@H]2Cc3ccc(F)c(C(=O)O)c3OB2O)c2cc(F)c(O)c(O)c2Cl)C(=O)C1=O)c1ccc(O)c(F)c1Cl (stereo partly drawn) [Example 418, (3R)-3-(2-(4-(3-(2-chloro-3-fluoro-4-hydroxybenzamido)propyl)-2,3-dioxopiperazine-1-carboxamido)-2-(2-chloro-5-fluoro-3,4-dihydroxyphenyl)acetamido)-7-fluoro-2-hydroxy-3,4-dihydro-2H-benzo[e][1,2]oxaborinine-8-carboxylic acid] | < 10 | < 10 | < 1 | < 1 | < 1 | 2 to 4 (≈ 2.46 to 4.92 µM) | 2 to 4 (≈ 2.46 to 4.92 µM) | < 1 | 2 to 4 (≈ 2.46 to 4.92 µM) | < 1 | > 128 | < 1 | < 1
O=C(O)c1c(F)ccc2c1OB(O)[C@@H](NC(=O)C(NC(=O)N1CCN(C3CCN(S(=O)(=O)c4cccc(O)c4)CC3)C(=O)C1=O)c1cc(F)c(O)c(O)c1Cl)C2 (stereo partly drawn) [Example 428, (3R)-3-(2-(2-chloro-5-fluoro-3,4-dihydroxyphenyl)-2-(4-(1-((3-hydroxyphenyl)sulfonyl)piperidin-4-yl)-2,3-dioxopiperazine-1-carboxamido)acetamido)-7-fluoro-2-hydroxy-3,4-dihydro-2H-benzo[e][1,2]oxaborinine-8-carboxylic acid] | < 10 | < 10 | < 1 | < 1 | < 1 | 2 to 4 (≈ 2.43 to 4.87 µM) | < 1 | 2 to 4 (≈ 2.43 to 4.87 µM) | 2 to 4 (≈ 2.43 to 4.87 µM) | < 1 | 8 to 16 (≈ 9.73 to 19.5 µM) | > 128 | > 128
O=C(O)c1c(F)ccc2c1OB(O)[C@@H](NC(=O)C(NC(=O)N1CCN(C3CCN(C(=O)c4cc(O)cc(O)c4)CC3)C(=O)C1=O)c1cc(F)c(O)c(O)c1Cl)C2 (stereo partly drawn) [Example 309, (3R)-3-(2-(2-chloro-5-fluoro-3,4-dihydroxyphenyl)-2-(4-(1-(3,5-dihydroxybenzoyl)piperidin-4-yl)-2,3-dioxopiperazine-1-carboxamido)acetamido)-7-fluoro-2-hydroxy-3,4-dihydro-2H-benzo[e][1,2]oxaborinine-8-carboxylic acid] | < 10 | < 10 | < 1 | < 1 | < 1 | 2 to 4 (≈ 2.49 to 4.99 µM) | < 1 | 2 to 4 (≈ 2.49 to 4.99 µM) | < 1 | < 1 | < 1 | < 1 | < 1
